{"source": "patent US20050106729A1", "about": "“Gene transfer methods and compositions” (priority 2002, published 2005)", "tested_on": "MMP-7 deficient corneal epithelial cells co-infected with CFB-EGSH-MMP-7 and FB-ERV retroviruses (ecdysone receptor)", "experiment": "Ponasterone A induction of MMP-7 expression in co-infected corneal epithelial cells (immunohistochemistry)", "assay_type": "cell-based, mouse", "conditions": "10 μM ponasterone A; two days after induction; induced vs non-induced infected cells", "from_the_text": "A cDNA encoding mouse pro matrix metalloproteinase-7 (MMP-7) was obtained from the I.M.A.G.E. clone consortium. Using a PCR-based cloning strategy, the cDNA was inserted into the multiple cloning site of pCFP-EGSH (a plasmid vector including retroviral packaging signals and a multiple cloning site downstream of an ecdysone hormone receptor responsive promoter) to make plasmid pCFB-EGSH-MMP-7. A second plasmid used in these experiments was pFB-ERV, a plasmid vector with retroviral packaging signals, and expressing the constituents of functional ecdysone hormone receptors capable of binding ponasterone A and activating the ecdysone responsive promoter in pCFP-EGSH.\nReplication deficient retroviral supematants from pCGB-EGSH-MMP-7 and […] were produced separately. The plasmid for pCFB-EGSH-MMP-7 or pFB-EGSH was co-transfected using a liposomal method into HEK293 cells along with the plasmids pEnv (expressing a retroviral ecotropic envelope protein) and pGag-Pol (expressing the gag and pol genes required for assembly of infectious retroviral particles). […]\nMMP-7 deficient corneal epithelial cells co-infected with CFB-EGSH-MMP-7 and FB-ERV replication deficient retroviruses were induced with 10 μM ponasterone A. an ecdysone analog and a ligand for the ecdysone receptor. […] Immunolocalization was determined using epifluorescence microscopy."}
{"smiles": "CC(C)CC[C@@H](O)[C@](C)(O)[C@H]1CC[C@@]2(O)C3=CC(=O)[C@@H]4C[C@@H](O)[C@@H](O)C[C@]4(C)[C@H]3CC[C@]12C", "note": "[ponasterone A]", "values": [{"measurement": "Expression of MMP-7 (immunolocalization, epifluorescence microscopy)", "value": "Expression of MMP-7 was seen only in infected epithelial cells induced with ponasterone A"}]}
